From patent US9067905B2, “Sulphone compounds and methods of making and using same” (Zafgen, Inc., priority 2009, dated 2015)
Counter-ions that a name gives are not always drawn.

Biological target: T1, recombinant human MetAP2 (Homo sapiens, UniProt P50579)
T1 construct: Flag; made in house; host or cells: Sf9 insect cells
Test: Inhibition of recombinant human MetAP2 activity (Amplex red fluorescence assay)
Type: biochemical
Details: manganese Flag-MetAP2, 0.75 mM Methionine-Alanine-Serine substrate, 30 minutes at 25° C., pH 7.5, 1% DMSO
Protocol: Compounds are tested for their capacity to inhibit recombinant human MetAP2 activity using the following assay.
Human recombinant Flag-MetAP2 expressed in Sf9 cells followed by affinity purification and EDTA treatment to remove endogenous active site cation is dialysed against MnCl2 to produce the manganese enzyme used in the assay. The assay is carried out for 30 minutes at 25° C. in 50 mM HEPES buffer containing 100 mM NaCl, pH 7.5 the presence of 0.75 mM Methionine-Alanine-Serine (MAS) substrate and 50 μg/ml amino acid oxidase using a dilution of purified MetAP2 giving approximately 50,000 RFU control activity. Cleavage of the substrate by MetAP2 and oxidation of free methionine by amino acid oxidase is detected and quantified using fluorescence generated by Amplex red (10-acetyl-3,7-dihydroxyphenoxazine) in combination with horseradish peroxidase which detects H2O2 released during the oxidation step. The fluorescent signal is detected using a multiwell fluorimeter. Compounds are diluted in DMSO prior to addition to assay buffer, the final DMSO concentration in the assay being 1%.
The IC50 is defined as the concentration at which a given compound achieves 50% inhibition of control. IC50 values are calculated using the XLfit software package (version 2.0.5).

T1 sequence (P50579 whole entry): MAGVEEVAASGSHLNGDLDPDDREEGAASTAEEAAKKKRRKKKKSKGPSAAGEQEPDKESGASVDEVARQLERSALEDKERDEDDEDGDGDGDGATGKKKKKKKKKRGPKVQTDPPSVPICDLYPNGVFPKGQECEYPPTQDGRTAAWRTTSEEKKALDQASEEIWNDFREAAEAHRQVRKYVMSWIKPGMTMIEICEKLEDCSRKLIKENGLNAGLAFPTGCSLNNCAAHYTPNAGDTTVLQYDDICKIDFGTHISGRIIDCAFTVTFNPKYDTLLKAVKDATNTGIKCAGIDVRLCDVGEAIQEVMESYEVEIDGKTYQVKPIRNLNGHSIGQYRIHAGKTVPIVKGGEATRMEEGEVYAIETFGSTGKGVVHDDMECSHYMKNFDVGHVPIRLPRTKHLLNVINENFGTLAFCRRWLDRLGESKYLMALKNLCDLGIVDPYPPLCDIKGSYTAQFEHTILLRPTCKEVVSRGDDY

| SMILES | IC50 [nM] |
| --- | --- |
| COc1c(-c2ccoc2)ccc(CS(=O)(=O)c2cccnc2)c1C(=O)O [3-(Furan-3-yl)-2-methoxy-6-(pyridin-3-ylsulphonylmethyl)benzoic acid] | 200 to 2000 |
| COc1c(-c2ccoc2)ccc(CS(=O)(=O)N2C3CCCC2CC3)c1C(=O)O [6-(8-Azabicyclo[3.2.1]octane-8-ylsulphonylmethyl)-3-(furan-3-yl)-2-methoxybenzoic acid] | > 2000 |
| COc1c(-c2ccoc2)ccc(CS(=O)(=O)c2ccccn2)c1C(=O)O [3-(Furan-3-yl)-2-methoxy-6-(pyridin-2-ylsulphonylmethyl)benzoic acid] | < 200 |
| COc1c(-c2cc[nH]n2)ccc(CS(=O)(=O)c2ccccc2)c1C(=O)O [6-(Benzenesulphonylmethyl)-2-methoxy-3-(pyrazol-3-yl)benzoic acid] | > 2000 |
| NCCNc1c(-c2ccoc2)ccc(CS(=O)(=O)c2ccccc2)c1C(=O)O [2-(2-Aminoethylamino)-6-benzenesulphonylmethyl-3-(furan-3-yl)-benzoic acid hydrochloride] | > 2000 |
| COc1cccc(S(=O)(=O)Cc2ccc(-c3ccoc3)c(OC)c2C(=O)O)c1 [3-(Furan-3-yl)-6-(3-methoxybenzenesulphonylmethyl)-2-methoxybenzoic acid] | > 2000 |
| COc1c(-c2cnco2)ccc(CS(=O)(=O)c2ccccc2)c1C(=O)O [6-(Benzenesulphonylmethyl)-2-methoxy-3-(oxazol-5-yl)benzoic acid] | 200 to 2000 |
| O=C(O)c1cc(-c2cnco2)ccc1CS(=O)(=O)c1ccccc1 [2-(Benzenesulphonylmethyl)-5-(oxazol-5-yl)benzoic acid] | > 2000 |
| COc1c(-c2ccoc2)ccc(CS(=O)(=O)c2cccc(Cl)c2)c1C(=O)O [6-(3-Chlorobenzenesulphonylmethyl)-3-(furan-3-yl)-2-methoxybenzoic acid] | < 200 |
| COc1ccccc1S(=O)(=O)Cc1ccc(-c2ccoc2)c(OCCN)c1C(=O)O [2-(2-Aminoethoxy)-3-(furan-3-yl)-6-(2-methoxybenzenesulphonyl-methyl)benzoic acid hydrochloride] | 200 to 2000 |
| CCc1ccc(CS(=O)(=O)c2ccccc2)c(C(=O)O)c1OCCN [2-(2-Aminoethoxy)-3-ethyl-6-benzenesulphonylmethylbenzoic acid hydrochloride] | < 200 |
| COc1c(-c2ccoc2)ccc(CS(=N)(=O)c2ccccc2)c1C(=O)O (stereo not shown) [3-(Furan-3-yl)-2-methoxy-6-[(S-phenylsulphonimidoyl)methyl]benzoic acid] | 200 to 2000 |
| N#CCOc1c(-c2ccoc2)ccc(CS(=O)(=O)c2ccccc2)c1C(=O)O [6-(Benzenesulphonylmethyl)-2-(cyanomethoxy)-3-(furan-3-yl)benzoic acid] | < 200 |
| COc1c(-c2ccoc2)ccc(CS(=O)(=O)c2ccccc2O)c1C(=O)O [3-(Furan-3-yl)-6-(2-hydroxybenzenesulphonylmethyl)-2-methoxybenzoic acid] | < 200 |
| CCc1ccc(CS(=O)(=O)c2ccccc2C)c(C(=O)O)c1OC [3-Ethyl-2-methoxy-6-(2-methylbenzenesulphonylmethyl)benzoic acid] | 200 to 2000 |
| COc1c(-c2ccoc2)ccc(CS(=O)(=O)N2CCC(O)C2)c1C(=O)O (stereo not shown) [3-(Furan-3-yl)-6-(3-hydroxypyrrolidine-1-ylsulphonylmethyl)-2-methoxybenzoic acid] | 200 to 2000 |
| COc1c(-c2cccs2)ccc(CS(=O)(=O)c2ccccc2)c1C(=O)O [6-(Benzenesulphonylmethyl)-2-methoxy-3-(thien-2-yl)benzoic acid] | > 2000 |
| COc1c(-c2ccoc2)ccc(CS(=O)(=O)N2CCCC2)c1C(=O)O [3-(Furan-3-yl)-2-methoxy-6-(pyrrolidin-1-ylsulphonylmethyl)-benzoic acid] | 200 to 2000 |

More lines, now with the values ahead:

| IC50 [nM] | SMILES |
| --- | --- |
| 200 to 2000 | CCc1ccc(CS(=O)(=O)c2ccccc2)c(C(=O)O)c1OC [6-(Benzenesulphonylmethyl)-3-ethyl-2-methoxy-benzoic acid] |
| > 2000 | COCCOc1c(-c2ccoc2)ccc(CS(=O)(=O)c2ccccc2)c1C(=O)O [6-(Benzenesulphonylmethyl)-3-(furan-3-yl)-2-(2-methoxyethoxy)-benzoic acid] |
| > 2000 | CCc1ccc(CS(=O)(=O)c2ccccc2)c(C(=O)O)c1-c1ccnn1C [6-(Benzenesulphonylmethyl)-3-ethyl-2-(2-methyl-2H-pyrazol-3-yl)-benzoic acid] |
| < 200 | CCN(CC)CCCNc1ccccc1S(=O)(=O)Cc1ccc(-c2ccoc2)c(OC)c1C(=O)O [6-[2-(3-Diethylaminopropylamino)benzenesulphonylmethyl]-3-(furan-3-yl)-2-methoxybenzoic acid] |
| < 200 | CCN(CC)C/C=C\c1cc(F)ccc1S(=O)(=O)Cc1ccc(-c2ccoc2)c(OC)c1C(=O)O [(Z)-6-((2-(3-(Diethylamino)prop-1-enyl)-4-fluorophenylsulfonyl)methyl)-3-(furan-3-yl)-2-methoxybenzoic acid] |
| > 2000 | CCc1ccc(CS(=O)(=O)c2ccccc2)c(C(=O)O)c1-c1ccn(C)n1 [6-Benzenesulphonylmethyl-3-ethyl-2-(1-methyl-1H-pyrazol-3-yl)-benzoic acid] |
| < 200 | COc1c(-c2ccoc2)ccc(CS(=O)(=O)c2ccccc2/C=C\CN2CCCCC2)c1C(=O)O [(Z)-3-(Furan-3-yl)-2-methoxy-6-((2-(3-(piperidin-1-yl)prop-1-enyl)benzenesulfonyl)methyl)benzoic acid] |
| > 2000 | COc1c(-c2ccoc2)ccc(CS(=O)(=O)C2CC3CCC2CC3)c1C(=O)O (stereo not shown) [6-(Bicyclo[2.2.2]octane-2-ylsulphonylmethyl)-3-(furan-3-yl)-2-methoxybenzoic acid] |
| 200 to 2000 | COc1c(-c2ccoc2)ccc(CS(=O)(=O)C2CCCCC2)c1C(=O)O [6-(Cyclohexanesulphonylmethyl)-3-(furan-3-yl)-2-methoxybenzoic acid] |
| > 2000 | COc1c(C#N)ccc(CS(=O)(=O)c2ccccc2)c1C(=O)O [6-(Benzenesulphonylmethyl)-3-cyano-2-methoxy-benzoic acid] |
| > 2000 | COc1c(-c2cocn2)ccc(CS(=O)(=O)c2ccccc2)c1C(=O)O [6-(Benzenesulphonylmethyl)-3-(oxazol-4-yl)-2-methoxybenzoic acid] |
| 200 to 2000 | COc1cc(CS(=O)(=O)c2ccccc2)c(C(=O)O)c(OC)c1-c1ccoc1 [6-(Benzenesulphonylmethyl)-3-(furan-3-yl)-2,4-dimethoxybenzoic acid] |
| > 2000 | CCN(CC)CC1CCN1c1ccccc1S(=O)(=O)Cc1ccc(-c2ccoc2)c(OC)c1C(=O)O (stereo not shown) [6-[2-(2-Diethylaminomethylazetidin-1-yl)-benzenesulphonylmethyl]-3-(furan-3-yl)-2-methoxybenzoic acid] |
| > 2000 | COc1c(-n2ccnc2)ccc(CS(=O)(=O)c2ccccc2)c1C(=O)O [6-(Benzenesulphonylmethyl)-3-(imidazol-1-yl)-2-methoxybenzoic acid] |
| 200 to 2000 | CCc1ccc(CS(=O)(=O)c2ccccc2)c(C(=O)O)c1-c1cc[nH]n1 [6-(Benzenesulphonylmethyl)-3-ethyl-2-(1H-pyrazol-3-yl)benzoic acid] |
| 200 to 2000 | COc1c(Br)ccc(CS(=O)(=O)c2ccccc2)c1C(=O)O [6-(Benzenesulphonylmethyl)-3-bromo-2-methoxybenzoic acid] |
